Source: ChEMBL document CHEMBL1909046, “DrugMatrix in vitro pharmacology data”

What was measured:
[1] = target: T1, 5-hydroxytryptamine receptor 1A (Rattus norvegicus, UniProt P19327); format: cell membranes, CHO-K1, Membrane; conditions: cho-k1; further: in other assays of this panel Not Active means under 50% inhibition at 10 µM
T1 sequence (P19327 whole entry): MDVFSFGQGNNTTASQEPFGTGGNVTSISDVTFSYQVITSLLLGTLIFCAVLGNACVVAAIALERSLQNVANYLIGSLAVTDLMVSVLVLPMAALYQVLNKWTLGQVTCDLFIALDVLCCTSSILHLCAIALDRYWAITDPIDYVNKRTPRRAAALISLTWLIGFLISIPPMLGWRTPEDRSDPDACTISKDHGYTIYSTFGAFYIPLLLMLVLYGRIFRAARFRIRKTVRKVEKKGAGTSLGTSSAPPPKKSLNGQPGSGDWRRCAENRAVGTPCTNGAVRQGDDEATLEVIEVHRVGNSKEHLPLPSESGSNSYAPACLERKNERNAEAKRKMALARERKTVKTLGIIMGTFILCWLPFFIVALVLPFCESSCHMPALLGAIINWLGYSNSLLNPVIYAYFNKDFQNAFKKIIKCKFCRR

Cytochrome P450 2C9 = Cytochrome P450 2C9 (Homo sapiens, UniProt P11712); conditions: bti-tn-5b1-4; further: in other assays of this panel Not Active means under 50% inhibition at 10 µM
D(3) dopamine receptor = D(3) dopamine receptor (Homo sapiens, UniProt P35462); assay: DRUGMATRIX: Dopamine D3 radioligand binding (ligand: [3H] Spiperone); format: cell membranes, CHO, Membrane; conditions: cho
[2] = DRUGMATRIX: Phosphodiesterase PDE4 enzyme inhibition (substrate: [3H]cAMP + cAMP); conditions: u-937; Not Active = under 50% inhibition at 10 µM
Calcitonin receptor = target: T2, Calcitonin receptor (Homo sapiens, UniProt P30988); format: cell membranes, Membrane; conditions: t47d; further: in other assays of this panel Not Active means under 50% inhibition at 10 µM
T2 sequence (P30988 whole entry): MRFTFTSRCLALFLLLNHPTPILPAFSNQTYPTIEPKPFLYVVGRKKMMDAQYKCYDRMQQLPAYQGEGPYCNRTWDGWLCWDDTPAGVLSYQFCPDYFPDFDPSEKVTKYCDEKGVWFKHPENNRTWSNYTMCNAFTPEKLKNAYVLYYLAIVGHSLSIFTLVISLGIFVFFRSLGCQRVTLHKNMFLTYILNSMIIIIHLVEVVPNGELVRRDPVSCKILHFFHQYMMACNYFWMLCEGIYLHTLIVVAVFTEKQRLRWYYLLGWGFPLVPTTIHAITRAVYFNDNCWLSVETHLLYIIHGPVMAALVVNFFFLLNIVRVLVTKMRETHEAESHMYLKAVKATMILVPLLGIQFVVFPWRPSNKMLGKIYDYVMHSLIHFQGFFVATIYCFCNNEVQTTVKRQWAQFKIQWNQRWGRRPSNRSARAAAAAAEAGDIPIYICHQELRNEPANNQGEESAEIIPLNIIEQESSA

Melanocortin receptor 4 = Melanocortin receptor 4 (Homo sapiens, UniProt P32245); format: cell membranes, Membrane; conditions: hek293; further: in other assays of this panel Not Active means under 50% inhibition at 10 µM
Melanocortin receptor 4, sequence (P32245 whole entry): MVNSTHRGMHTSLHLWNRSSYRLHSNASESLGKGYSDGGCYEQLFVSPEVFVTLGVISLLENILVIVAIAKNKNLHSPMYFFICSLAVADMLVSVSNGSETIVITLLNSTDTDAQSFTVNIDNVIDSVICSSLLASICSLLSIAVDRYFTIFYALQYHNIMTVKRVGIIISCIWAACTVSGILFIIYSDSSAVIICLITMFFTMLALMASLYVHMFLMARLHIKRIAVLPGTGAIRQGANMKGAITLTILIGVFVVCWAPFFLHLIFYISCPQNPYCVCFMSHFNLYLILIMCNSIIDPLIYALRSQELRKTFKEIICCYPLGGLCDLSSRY

D(3) dopamine receptor, sequence (P35462 whole entry): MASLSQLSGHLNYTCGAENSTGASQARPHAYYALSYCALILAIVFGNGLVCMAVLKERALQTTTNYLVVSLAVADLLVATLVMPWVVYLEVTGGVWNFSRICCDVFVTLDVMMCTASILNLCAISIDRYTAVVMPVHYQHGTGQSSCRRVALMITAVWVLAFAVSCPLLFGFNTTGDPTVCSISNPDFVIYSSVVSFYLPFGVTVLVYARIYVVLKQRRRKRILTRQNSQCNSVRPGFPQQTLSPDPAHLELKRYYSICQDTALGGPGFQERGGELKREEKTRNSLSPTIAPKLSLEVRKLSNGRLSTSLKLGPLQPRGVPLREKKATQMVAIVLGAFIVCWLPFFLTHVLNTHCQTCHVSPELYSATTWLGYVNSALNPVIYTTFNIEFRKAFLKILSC
Cytochrome P450 2C9, sequence (P11712 whole entry): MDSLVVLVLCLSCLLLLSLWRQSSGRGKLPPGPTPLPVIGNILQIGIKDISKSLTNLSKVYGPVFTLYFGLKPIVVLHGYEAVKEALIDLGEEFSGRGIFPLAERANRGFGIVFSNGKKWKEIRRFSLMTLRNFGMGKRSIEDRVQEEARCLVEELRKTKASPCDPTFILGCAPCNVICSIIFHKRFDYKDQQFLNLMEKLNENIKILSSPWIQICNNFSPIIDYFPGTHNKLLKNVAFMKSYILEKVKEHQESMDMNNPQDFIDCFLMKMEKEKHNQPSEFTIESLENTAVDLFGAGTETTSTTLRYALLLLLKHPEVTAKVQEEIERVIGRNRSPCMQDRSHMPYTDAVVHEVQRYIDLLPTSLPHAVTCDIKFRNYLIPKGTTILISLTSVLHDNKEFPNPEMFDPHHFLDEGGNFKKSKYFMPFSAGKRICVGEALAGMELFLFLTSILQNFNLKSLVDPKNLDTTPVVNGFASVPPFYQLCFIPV

C[C@@H]1C[C@H]2[C@@H]3CCC4=CC(=O)C=C[C@]4(C)C3=CC[C@]2(C)[C@H]1C(=O)CN1CCN(c2cc(N3CCCC3)nc(N3CCCC3)n2)CC1 [TIRILAZAD]
Not Active: IC50 [1] | IC50 (Cytochrome P450 2C9) | Ki (Cytochrome P450 2C9) | IC50 (D(3) dopamine receptor) | IC50 [2] | Ki [2] | IC50 (Calcitonin receptor) | IC50 (Melanocortin receptor 4)

COc1ncnc(NS(=O)(=O)c2ccc(N)cc2)c1OC [SULFADOXINE]
Not Active: IC50 [1] | IC50 (Cytochrome P450 2C9) | Ki (Cytochrome P450 2C9) | IC50 (D(3) dopamine receptor) | IC50 [2] | Ki [2] | IC50 (Calcitonin receptor) | IC50 (Melanocortin receptor 4)

STANNOUS FLUORIDE
Not Active: IC50 [1] | Ki [1] | IC50 (Cytochrome P450 2C9) | Ki (Cytochrome P450 2C9) | IC50 (D(3) dopamine receptor) | Ki (D(3) dopamine receptor) | IC50 [2] | Ki [2] | IC50 (Calcitonin receptor) | Ki (Calcitonin receptor) | IC50 (Melanocortin receptor 4) | Ki (Melanocortin receptor 4)

CC1=C(CC(=O)O)c2cc(F)ccc2/C1=C\c1ccc(S(C)(=O)=O)cc1 [EXISULIND]
Not Active: IC50 [1] | IC50 (Cytochrome P450 2C9) | Ki (Cytochrome P450 2C9) | IC50 (D(3) dopamine receptor) | IC50 [2] | Ki [2] | IC50 (Calcitonin receptor) | IC50 (Melanocortin receptor 4)

NC[C@H]1O[C@H](O[C@H]2[C@H](O)[C@@H](O[C@H]3O[C@H](CO)[C@@H](O)[C@H](N)[C@H]3O)[C@H](N)C[C@@H]2N)[C@H](N)C[C@@H]1O [TOBRAMYCIN]
Not Active: IC50 [1] | IC50 (Cytochrome P450 2C9) | Ki (Cytochrome P450 2C9) | IC50 (D(3) dopamine receptor) | IC50 [2] | Ki [2] | IC50 (Calcitonin receptor) | IC50 (Melanocortin receptor 4)

O=C(O)C(Cl)(Cl)Cl [TRICHLOROACETIC ACID]
Not Active: IC50 [1] | IC50 (Cytochrome P450 2C9) | Ki (Cytochrome P450 2C9) | IC50 (D(3) dopamine receptor) | IC50 [2] | Ki [2] | IC50 (Calcitonin receptor) | IC50 (Melanocortin receptor 4)
